Measured values taken from US11261478B2, “Thermal stable luciferase with improved resistance to inhibition by luciferin break-down products” (priority 2016, dated 2022).
pKi: −log10 of the molar value.

Legend:
[1] = biological target: UltraGlo luciferase variant Triple+300 (H244W, T344A, I396K, C300G), SEQ ID NO: 11 (Photuris pensylvanica, UniProt Q27757, A101V/A17E/A262V/C221A/D34A/D353K/D394P/E2A/F294L/F367L/F500Y/G84S/H14Y/H220I/H244W/I125V/I173S/I396K/K413N/L193S/L91V/N183Y/N412D/N499D/P295A/R357K/S105N/S204P/S36P/S399G/S502A/T234S/T249M/T344A/T354G/T386P/V145I/V194I/V203L/V300G/V356A/Y144S/Y27D); experiment: Competitive inhibition of F-luciferin luminescence by dehydro-F-luciferin, purified Triple+300 luciferase mutant; assay type: biochemical; settings: F-luciferin 1 mM, ATP 0.5 mM final, 3 minutes at room temperature, Michaelis-Menten competitive inhibition model
Experimental: (§1) To explore the inhibition of F-luciferin luminescence by dehydro-F-luciferin by combination mutants, the mutant Triple+300 (H244W, T344A, I396K, C300G) was screened for its resistance to dehydroluciferin.
(§2) Purified UltraGlo and Triple+300 luciferase enzymes were serially diluted from stocks in 1×TBS+1.0% Prionex to a concentration of 0.01 mg/ml. Racemic F-luciferin was serially diluted from stocks in water to 22 mM. Racemic dehydro-F-luciferin was serially diluted from stocks in water to 10 mM, and then 8 consecutive 4-fold serial dilutions were carried out for each concentration tested. ATP was diluted to 1 mM in BrightGlo Buffer or Detection Reagent buffer (depending on final reaction destination) to 1 mM concentration.
(§3) The following components were then combined into wells of a flat bottom, white, 96-well plate: 50 ul diluted ATP in buffer (BrightGlo or Detection Reagent; 0.5 mM final concentration), 50 ul diluted luciferase enzyme ([…] final concentration), 5 ul diluted F-luciferin (1 mM final concentration), and 4 ul diluted dehydro-F-luciferin ([…] final concentration)
(§4) Reactions were incubated for 3 minutes at room temperature, and luminescence was measured using a GloMax Multi+plate reader. Data were analyzed in GraphPad Prism 7 using nonlinear regression by fitting the data to a Michaelis-Menten competitive inhibition enzyme kinetic model.

[2] = biological target: T1, UltraGlo luciferase (parent, ULTRA GLO luciferase, SEQ ID NO: 3) (Photuris pensylvanica, UniProt Q27757, A101V/A17E/A262V/C221A/D34A/D353K/D394P/E2A/F294L/F367L/F500Y/G84S/H14Y/H220I/I125V/I173S/K413N/L193S/L91V/N183Y/N412D/N499D/P295A/R357K/S105N/S204P/S36P/S399G/S502A/T234S/T249M/T354G/T386P/V145I/V194I/V203L/V300C/V356A/Y144S/Y27D); experiment: Competitive inhibition of F-luciferin luminescence by dehydro-F-luciferin, purified UltraGlo luciferase; assay type: biochemical; settings: F-luciferin 1 mM, ATP 0.5 mM final, 3 minutes at room temperature, Michaelis-Menten competitive inhibition model
T1 construct: full length, 552 aa
Experimental: as §1, §2, §3, §4

UltraGlo luciferase variant Triple+300 (H244W, T344A, I396K, C300G), SEQ ID NO: 11, sequence (Q27757 other isoform, or with tags, fused parts or gaps with the stated changes): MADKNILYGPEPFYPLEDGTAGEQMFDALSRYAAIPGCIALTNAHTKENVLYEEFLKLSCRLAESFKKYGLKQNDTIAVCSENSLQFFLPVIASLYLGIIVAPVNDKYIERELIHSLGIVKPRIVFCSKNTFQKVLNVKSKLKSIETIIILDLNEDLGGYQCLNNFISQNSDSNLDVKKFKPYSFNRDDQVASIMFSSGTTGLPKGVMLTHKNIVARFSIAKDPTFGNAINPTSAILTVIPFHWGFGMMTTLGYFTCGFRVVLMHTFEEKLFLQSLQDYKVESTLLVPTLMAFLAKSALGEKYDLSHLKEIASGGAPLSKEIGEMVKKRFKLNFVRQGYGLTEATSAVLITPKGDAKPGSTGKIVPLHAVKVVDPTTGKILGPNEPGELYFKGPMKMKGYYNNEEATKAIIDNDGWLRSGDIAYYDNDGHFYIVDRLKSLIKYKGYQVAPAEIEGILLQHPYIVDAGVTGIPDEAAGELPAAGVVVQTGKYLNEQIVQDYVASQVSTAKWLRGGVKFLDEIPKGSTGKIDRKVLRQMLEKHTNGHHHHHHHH
T1 sequence (Q27757 other isoform, or with tags, fused parts or gaps with the stated changes): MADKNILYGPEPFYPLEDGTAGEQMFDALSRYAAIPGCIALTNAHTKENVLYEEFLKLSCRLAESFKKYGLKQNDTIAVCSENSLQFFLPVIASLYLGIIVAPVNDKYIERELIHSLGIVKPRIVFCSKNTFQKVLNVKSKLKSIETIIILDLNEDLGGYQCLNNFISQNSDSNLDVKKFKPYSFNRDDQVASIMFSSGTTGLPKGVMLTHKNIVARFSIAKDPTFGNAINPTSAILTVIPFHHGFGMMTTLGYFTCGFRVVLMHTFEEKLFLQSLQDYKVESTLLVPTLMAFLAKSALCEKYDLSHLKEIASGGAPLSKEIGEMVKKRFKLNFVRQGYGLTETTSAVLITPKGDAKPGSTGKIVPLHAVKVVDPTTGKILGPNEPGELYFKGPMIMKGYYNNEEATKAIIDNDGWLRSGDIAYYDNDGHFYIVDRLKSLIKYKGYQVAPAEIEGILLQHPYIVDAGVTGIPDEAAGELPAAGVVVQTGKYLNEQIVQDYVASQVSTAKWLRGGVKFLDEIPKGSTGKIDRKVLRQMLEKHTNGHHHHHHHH

O=C(O)c1csc(-c2nc3cc(F)c(O)cc3s2)n1 [dehydro-F-luciferin] showed a pKi ([1]; BrightGlo buffer) of 7.14, a pKi ([1]; Detection Reagent buffer) of 6.25 and a pKi ([2]; BrightGlo buffer) of 7.40. It also gave a pKi ([2]; Detection Reagent buffer) of 6.38.
